Experiments:
[1] = rodent models; cited from earlier work
[2] = clinical trials, BG included in TMZ regimens; cited from earlier work
SF767 cells = experiment: Clonogenic survival assay with TMZ; type: cell-based, human
Experimental: SF767 cells are noted for their pronounced resistance to TMZ (LD50 about 600 μM) mediated in large part by MGMT. The effect of suppression of MGMT activity by NPCP-BG on TMZ-mediated reduction in clonogenic survival of SF767 is illustrated in FIG. 6. Cells were exposed to NPCP-BG equivalent to 20 μM free drug for 2 hr followed by incubation with TMZ for 24 hr in the presence of inhibitor. Controls were treated either with 20 μM free BG or with an equivalent volume of DMSO.
Determination of proliferative survival of SF767 by clonogenic assay was performed as described previously (Blank et al., DNA Repair 2004, 3, 629-638). Briefly, 6-well plates inoculated with 2 mL of supplemented medium containing 1000 to 2000 cells were incubated overnight at 37° C. in 95%/5% air/CO2 to allow reattachment and resumption of proliferation. Cells were then incubated for 2 hrs with inhibitor-conjugated NP equivalent to 20 μM free BG prior to exposure to TMZ. Incubation was continued for 22 hr before changing cells to fresh, drug-free medium to allow formation of colonies ≧50 cells. […] Cytotoxicity was quantitated by linear regression analysis of plots of log surviving fraction v. […] Survival was determined in 4 separate experiments in which every dose was assayed in duplicate (i.e., 8 determinations per TMZ dose) in order to achieve statistical significance.

[3] = target: T1, O6-methylguanine-DNA methyltransferase (MGMT) (Homo sapiens, UniProt P16455); experiment: MGMT activity assay in treated SF767 cells; type: cell-based; details: 20 μM free BG, 2 hr
T1 construct: MGMT activity determined in cleared supernatants of whole cell homogenates; endogenous in cells; host or cells: SF767 human GBM cell line (ATCC)
T1 sequence (P16455 1-207): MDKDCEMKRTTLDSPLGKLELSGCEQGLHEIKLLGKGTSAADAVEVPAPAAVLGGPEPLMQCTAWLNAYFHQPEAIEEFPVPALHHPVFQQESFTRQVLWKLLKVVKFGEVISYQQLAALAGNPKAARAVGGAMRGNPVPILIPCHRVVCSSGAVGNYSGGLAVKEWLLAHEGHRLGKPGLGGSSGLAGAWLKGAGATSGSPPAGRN
Experimental: In this experiment, MGMT activity was assayed in untreated cells, cells incubated with 20 μM free BG for 2 hr, and cells treated for either 2 hr or 24 hr with NPCP-BG equivalent to 5 μM, 10 μM or 20 μM BG. […] All treatment conditions were normalized as a percent MGMT activity of untreated SF767 cells.
The MGMT activities of protein extracts of human GBM SF767 cells were measured in a standard biochemical assay that quantifies the transfer of radioactivity from a DNA substrate containing [methyl^3H]O^6-methylguanine (specific activity, 80 Ci/mmol) to protein, as detailed previously (Silber et al., Cancer Res 1998, 58, 1068-1073). 2×10^6 SF767 cells were plated in 100 mm treated dishes and incubated with 20 μM free BG for and 2 hr or 24 hr with NPCP-BG equivalent to 5 μM, 10 μM or 20 μM BG in fully supplemented media. After incubation, cells were washed with PBS and collected and protein extracts were prepared. The protein extract supernatant was prepared by dissolution of washed SF767 pellets of known cell number with non-ionic detergents in the presence of 600 mM NaCl. Aliquots of crude homogenate were saved for DNA determination by the diphenylamine method that measures deoxyribose following degradation of DNA with heat and acid. Crude homogenate was cleared by centrifugation at 10,000×g for 30 min. […]

brain tumors = details: cited from earlier work

Nc1nc(OCc2ccccc2)c2nc[nH]c2n1 [BG, O^6-benzylguanine]
Half-life reported in literature [1]: 1.2 h
Reduction of maximum tolerated dose (MTD) of TMZ [2]: 50%
TMZ LD50 in presence of MGMT inhibitor (SF767 cells; inhibitor equivalent to 20 μM BG for 2 hr before TMZ for 24 hr): about 15 μM
Fold reduction of MGMT activity [3]: about 28 fold
MGMT activity as percent of untreated activity [3]: about 3.6%

Cn1nnc2c(C(N)=O)ncn2c1=O [TMZ, temozolomide]
TMZ LD50 (dose reducing clonogenic survival to 50%) (SF767 cells; TMZ alone): about 600 μM

chlorotoxin [CTX]
Brain tumors targeted of those examined (brain tumors): 74 out of 79

Source: US9784730B2, “Nanoparticle for targeting brain tumors and delivery of O6-benzylguanine” (University of Washington through its Center for …, priority 2013, dated 2017)
